Our source for the GI50 and TGI values is PubChem BioAssay (NCI).

Values joined by “and” are separate entries in the source; they are usually repeats but may differ in a detail not shown here. Identical values can stand only once.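 Where inhibition never reached the appropriate level, the endpoint shown equals the highest concentration tested. Otherwise, values were interpolated linearly from a five-concentration, 48-hour dose response in 96-well plates. At the GI50, growth is halved. TGI denotes the concentration required for complete inhibition of growth.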 A value given as a limit tells only on which side of the number the result lay.

Among the test systems are BT-549 breast; M14 melanoma; MDA-MB-231 breast; MOLT-4 leukemia; OVCAR-3 ovarian; OVCAR-5 ovarian; SK-MEL-2 melanoma; TK-10 renal; UO-31 renal; EKVX NSCLC.
Holding throughout (test): NCI anticancer screen, dose series, 48 h

On to `COc1cccc(C(=O)NC(c2ccc(C)cc2)c2cc(Cl)c3cccnc3c2O)c1` (stereo not drawn), for which the GI50 with BT-549 breast was 1320 nM; with M14 melanoma, 0.677 µM; with MDA-MB-231 breast it was 612 nM; in the assay with MOLT-4 leukemia it was 0.622 µM; in the assay with OVCAR-3 ovarian it was 346 nM; with OVCAR-5 ovarian, 1.13 µM. Moreover, the values for the GI50 in the assay on SK-MEL-2 melanoma, in the assay with TK-10 renal and in the assay on UO-31 renal were 0.767 µM, 393 nM and 0.362 µM, respectively. The TGI in the assay with BT-549 breast came to 18.6 µM; with M14 melanoma it was 10.8 µM; with MDA-MB-231 breast, 15.4 µM; in the assay on MOLT-4 leukemia it was 8.05 µM; with OVCAR-3 ovarian it was 18.6 µM; in the assay on OVCAR-5 ovarian, 24.4 µM. Moreover, the TGI came to 9.16 µM in the assay with SK-MEL-2 melanoma, 4.8 µM with TK-10 renal and 10.8 µM in the assay on UO-31 renal.

As to `COc1ccc(-c2cn[nH]c2-c2cc(OC)c(OC)c(OC)c2)cc1`, the GI50 with MDA-MB-231 breast was 55 nM; in the assay with MOLT-4 leukemia, 0.0457 µM; in the assay with OVCAR-3 ovarian, 22.8 nM; with OVCAR-5 ovarian, 0.0375 µM; in the assay on SK-MEL-2 melanoma, 0.0317 µM; in the assay with UO-31 renal it was 0.0572 µM. Also, the TGI was found to be 33.1 µM in the assay with MDA-MB-231 breast; 4.21 µM in the assay on MOLT-4 leukemia; 0.0694 µM with OVCAR-3 ovarian; 36.9 µM in the assay with OVCAR-5 ovarian; 21.5 µM with SK-MEL-2 melanoma; 15.2 µM in the assay on UO-31 renal.

On to `O=C1NC(=NC(CO)Cc2ccccc2)S/C1=C\c1ccc2ncccc2c1` (stereo not drawn), for which the TGI with BT-549 breast was > 25 µM and 11.4 µM; with M14 melanoma it was > 25 µM; with MDA-MB-231 breast, > 25 µM; with MOLT-4 leukemia it was > 25 µM and 18.7 µM; with OVCAR-3 ovarian, > 25 µM and 11.8 µM; with OVCAR-5 ovarian it was > 25 µM. For the same compound, the TGI with SK-MEL-2 melanoma was > 25 µM and 12.4 µM; in the assay with TK-10 renal, > 25 µM; in the assay on UO-31 renal, > 25 µM and 16.8 µM. Further, the GI50 with M14 melanoma is 14 µM and 7.08 µM; with MDA-MB-231 breast, > 25000 nM and 10300 nM; in the assay with MOLT-4 leukemia, 12.2 µM and 7.45 µM; in the assay on OVCAR-3 ovarian, 19800 nM and 2730 nM; in the assay with OVCAR-5 ovarian, > 25 µM and 6.83 µM; with SK-MEL-2 melanoma it was 10.1 µM and 4.32 µM. Moreover, the GI50 in the assay with TK-10 renal was > 23700 nM and 3550 nM; in the assay on UO-31 renal it was 16.4 µM and 5.82 µM.

`O=C1CN(c2cccc(Cl)c2)C(=O)CN1CCN1CC(=O)N(c2cccc(Cl)c2)CC1=O`: the TGI in the assay with BT-549 breast, with EKVX NSCLC, with M14 melanoma, in the assay on MOLT-4 leukemia, in the assay with OVCAR-3 ovarian and in the assay with OVCAR-5 ovarian was > 100 µM throughout. In addition, the TGI in the assay with TK-10 renal and with UO-31 renal was > 100 µM in each case.

For the compound `COc1cc(C2CC(C)(O)Oc3cc4c(cc32)OCO4)cc(OC)c1OC` (stereo not drawn), the TGI in the assay on BT-549 breast was > 100 µM; in the assay with EKVX NSCLC it was > 100 µM; in the assay with M14 melanoma, > 100 µM; in the assay with MDA-MB-231 breast it was 0.851 µM; in the assay on MOLT-4 leukemia it was > 100 µM; with OVCAR-3 ovarian, 0.679 µM. In addition, the TGI in the assay on OVCAR-5 ovarian and in the assay on TK-10 renal was > 100 µM in each case.

With `Nc1cc(NN=C(c2ccc(O)cc2)c2ccc(O)cc2)c([N+](=O)[O-])cc1[N+](=O)[O-]`, the GI50 in the assay on BT-549 breast was 2460 nM; in the assay with EKVX NSCLC, 2.42 µM; in the assay with M14 melanoma it was 1.71 µM; with MDA-MB-231 breast it was 2220 nM; with MOLT-4 leukemia it was 2.76 µM; with OVCAR-3 ovarian it was 1810 nM. Also, the GI50 in the assay with OVCAR-5 ovarian was 2.85 µM; in the assay on TK-10 renal it was 2220 nM; in the assay with UO-31 renal it was 1.81 µM. For the same compound, the TGI in the assay on BT-549 breast came out at 6.78 µM; in the assay with EKVX NSCLC, 7.45 µM; in the assay on M14 melanoma, 3.49 µM; in the assay with MDA-MB-231 breast it was 5.38 µM; with MOLT-4 leukemia, 7.69 µM; in the assay on OVCAR-3 ovarian, 4.14 µM. For the same compound, the results for the TGI in the assay with OVCAR-5 ovarian, in the assay on TK-10 renal and in the assay with UO-31 renal were 8.44 µM, 6.98 µM and 4.87 µM, respectively.

As to `CC1(C)OC1COc1c2occc2cc2ccc(=O)oc12` (stereo not drawn), the TGI in the assay with BT-549 breast, in the assay on EKVX NSCLC, with M14 melanoma, with MDA-MB-231 breast, with MOLT-4 leukemia and in the assay on OVCAR-3 ovarian was > 100 µM throughout. The TGI in the assay with OVCAR-5 ovarian, with SK-MEL-2 melanoma and in the assay with UO-31 renal was > 100 µM each time.

Take `O=[N+]([O-])c1ccc(Cl)cc1N/N=C/c1ccnc2ccccc12`: the TGI in the assay with BT-549 breast, in the assay on EKVX NSCLC, in the assay on M14 melanoma, in the assay on MDA-MB-231 breast, in the assay on MOLT-4 leukemia and in the assay with OVCAR-3 ovarian was > 100 µM in each case. For the same compound, the TGI in the assay with TK-10 renal and in the assay on UO-31 renal was > 100 µM each time.

In the case of `COc1ccc(CCN=C2NC(=O)/C(=C/c3ccc4ncccc4c3)S2)cc1`, the GI50 with BT-549 breast was > 25000 nM; in the assay with M14 melanoma, > 25 µM; in the assay on MDA-MB-231 breast, > 25000 nM; in the assay on MOLT-4 leukemia, > 25 µM; in the assay with OVCAR-3 ovarian, > 25000 nM; with OVCAR-5 ovarian, > 25 µM. The GI50 in the assay on SK-MEL-2 melanoma is > 25 µM; in the assay on TK-10 renal it was > 25000 nM; in the assay on UO-31 renal it was > 25 µM. Further, the TGI in the assay on BT-549 breast, with M14 melanoma, in the assay on MDA-MB-231 breast, with MOLT-4 leukemia, with OVCAR-3 ovarian and with OVCAR-5 ovarian was > 25 µM throughout. Also, the TGI in the assay with SK-MEL-2 melanoma, in the assay on TK-10 renal and in the assay with UO-31 renal was > 25 µM throughout.

In the case of `COc1cc(/C(C#N)=C/c2nc3c(N4CCOCC4)nc(Cl)nc3n2C)cc(OC)c1OC`, the GI50 was < 10 nM with BT-549 breast; < 10 nM in the assay with MDA-MB-231 breast; < 0.0184 µM in the assay on MOLT-4 leukemia; < 10 nM in the assay with OVCAR-3 ovarian; < 0.01 µM in the assay on OVCAR-5 ovarian; < 0.0144 µM with SK-MEL-2 melanoma. In addition, the GI50 in the assay on TK-10 renal is 2910 nM; in the assay with UO-31 renal, < 0.01 µM. Besides, the TGI in the assay with BT-549 breast is 0.481 µM; with EKVX NSCLC it was > 69.9 µM; in the assay on MDA-MB-231 breast, 35.9 µM; in the assay with MOLT-4 leukemia, 27.5 µM; with OVCAR-3 ovarian, < 0.01 µM; in the assay on OVCAR-5 ovarian, > 100 µM. Also, the values for the TGI in the assay with SK-MEL-2 melanoma, in the assay with TK-10 renal and in the assay on UO-31 renal were 62.7 µM, 17.8 µM and 5.17 µM, respectively.

As for `Nc1c(C(=O)Nc2cccc(C(F)(F)F)c2)sc2nc3c(cc12)CCCCC3`, the GI50 was 1700 nM with BT-549 breast; 4.15 µM in the assay with M14 melanoma; 4400 nM in the assay with MDA-MB-231 breast; 15 µM with MOLT-4 leukemia; 2840 nM with OVCAR-3 ovarian; 3.43 µM in the assay with OVCAR-5 ovarian. Besides, the GI50 in the assay with SK-MEL-2 melanoma is 3.16 µM; with TK-10 renal it was 1830 nM; with UO-31 renal, 1.64 µM. In addition, the TGI with BT-549 breast stood at 6.33 µM; in the assay with M14 melanoma, 41.5 µM; in the assay on MDA-MB-231 breast it was 22.7 µM; in the assay on MOLT-4 leukemia, 51.6 µM; with OVCAR-3 ovarian it was 11.5 µM; in the assay with OVCAR-5 ovarian, 17.3 µM. The TGI in the assay on SK-MEL-2 melanoma came to 19.3 µM; in the assay with TK-10 renal, 4.47 µM; in the assay on UO-31 renal, 4.88 µM.

On to `CCN(Cc1ccc(F)cc1)c1cc(Cl)c(CO)c(Cl)c1`, for which the GI50 is 13600 nM in the assay on BT-549 breast; 17 µM in the assay on M14 melanoma; 13000 nM in the assay with MDA-MB-231 breast; 16.6 µM in the assay on MOLT-4 leukemia; 11700 nM in the assay on OVCAR-3 ovarian; 4.22 µM in the assay on OVCAR-5 ovarian. For the same compound, the GI50 in the assay with SK-MEL-2 melanoma was 15 µM; with TK-10 renal, 2580 nM; with UO-31 renal, 12.2 µM. The TGI with BT-549 breast was 28.3 µM; in the assay on M14 melanoma, 35 µM; in the assay on MDA-MB-231 breast, 26.7 µM; in the assay with MOLT-4 leukemia, 44 µM; with OVCAR-3 ovarian it was 24.3 µM; in the assay on OVCAR-5 ovarian, 17.7 µM. In addition, the TGI in the assay on SK-MEL-2 melanoma is 29.5 µM; in the assay with TK-10 renal, 13.8 µM; with UO-31 renal it was 25.4 µM.

Turning to `Cc1nnc(NC(=O)c2nc(S(=O)(=O)Cc3ccc(F)cc3)ncc2Cl)s1`, the GI50 in the assay on BT-549 breast was 2300 nM; with EKVX NSCLC, 6.73 µM; with M14 melanoma, 2.88 µM; in the assay with MDA-MB-231 breast it was 1780 nM; with MOLT-4 leukemia, 2.02 µM; with OVCAR-3 ovarian it was 1940 nM. Further, the results for the GI50 with OVCAR-5 ovarian, with SK-MEL-2 melanoma and in the assay with UO-31 renal were 12.4 µM, 3.19 µM and 7.15 µM, respectively. Also, the TGI amounted to 5.25 µM in the assay with BT-549 breast; 24.3 µM in the assay on EKVX NSCLC; 10.3 µM with M14 melanoma; 3.31 µM in the assay on MDA-MB-231 breast; 4.38 µM with MOLT-4 leukemia; 3.47 µM in the assay on OVCAR-3 ovarian. Besides, the TGI in the assay on OVCAR-5 ovarian is 25.4 µM; in the assay with SK-MEL-2 melanoma, 9.72 µM; in the assay with UO-31 renal, 20.6 µM.

For the compound `CC(C)(C)c1cc2c(O)c3cccc4c(=O)c5cccc6c5-c(c34)c2c(c1)c6=O`, the TGI in the assay with EKVX NSCLC, in the assay on M14 melanoma, with MOLT-4 leukemia, in the assay with OVCAR-3 ovarian, in the assay with OVCAR-5 ovarian and with SK-MEL-2 melanoma was > 100 µM in each case. For the same compound, the TGI with TK-10 renal and with UO-31 renal was > 100 µM each time.

Turning to `Cc1ccc(/C=C/C(=O)c2cccc3ccccc23)cc1`, the TGI with EKVX NSCLC was 34 µM; with M14 melanoma, 39.5 µM; in the assay with MOLT-4 leukemia it was 67.6 µM; in the assay on OVCAR-3 ovarian, 31.7 µM; in the assay on OVCAR-5 ovarian, 27.5 µM; with SK-MEL-2 melanoma it was 32.6 µM. Moreover, the TGI was 28.5 µM in the assay on TK-10 renal and 39.7 µM with UO-31 renal.
